Measurements published in patent US4546176A, “7-Carboxymethoxyphenylacetamido-3-cephem derivatives and antibacterial preparations containing the same” (Eisai Co., Ltd., priority 1982, dated 1985).
≈ marks a conversion by molar mass, not a printed value.

Experiments:
[1] = Solubility in water; assay type: physicochemical; settings: in distilled water at 25° C.
[2] = system: Staph. aureus 209-P; test: Antibacterial activities (MIC), Staph. aureus 209-P; assay type: cell-based; settings: Staphylococcus aureus
Source text: (§1) (1) Antibacterial activities (MIC):

[3] = system: Pseud. aeruginosa EP-01; test: Antibacterial activities (MIC), Pseud. aeruginosa EP-01; assay type: cell-based; settings: Pseudomonas aeruginosa, EP01
Source text: as §1

[4] = system: Kleb. pneumoniae EK-6; test: Antibacterial activities (MIC), Kleb. pneumoniae EK-6; assay type: cell-based; settings: Klebsiella pneumoniae, EK6
Source text: as §1

[5] = system: Ser. marcescens ES-75; test: Antibacterial activities (MIC), Ser. marcescens ES-75; assay type: cell-based; settings: Serratia marcescens, ES75
Source text: as §1

[6] = system: Proteus morganii EP-14; test: Antibacterial activities (MIC), Proteus morganii EP-14; assay type: cell-based; settings: Morganella morganii, EP14
Source text: as §1

[7] = system: Escher. coli NIHJ; test: Antibacterial activities (MIC), Escher. coli NIHJ; assay type: cell-based; settings: Escherichia coli
Source text: as §1

[8] = Urinary excretion rate in mice; assay type: in vivo, ICR male mice; settings: mouse, sc, 20 mg/kg subcutaneous, urine up to 6 hours, bioassay
Experimental: ICR male mice (body weight: 20-30 g) were used. Each compound was dissolved in an M/15 phosphate buffer (pH 7.0) and administered in an amount of 20 mg/kg by the subcutaneous route. Urine was collected up to 6 hours after the administration. The concentration of the compound was determined by the bioassey technique (the agar-well method) using Pseudomonas aeruginosa as a test microorganism. On the basis of the thus-determined concentration, its excreted amount was obtained. The urinary excretion rate was then calculated from the excreted amount based on the amount administered.

[9] = Acute toxicity LD50 (mouse, oral); settings: in vivo
Source text: The acute toxicity values [LD50 (mouse, oral)] of the following compounds were each 4 g/kg or greater;

| Compound | solubility [1] | MIC [2] | MIC [3] | MIC [4] | MIC [5] | MIC [6] | MIC [7] | dose excreted at 6 h [8] | LD50 [9] |
| --- | --- | --- | --- | --- | --- | --- | --- | --- | --- |
| CC(=O)OCC1=C(C(=O)O)N2C(=O)[C@@H](NC(=O)[C@H](NC(=O)c3coc4cc(O)c(O)cc4c3=O)c3ccc(OCC(=O)O)cc3)[C@H]2SC1 [Example 2] | ≥ 200 mg/mL |  |  |  |  |  |  |  |  |
| Cn1nnnc1SCC1=C(C(=O)O)N2C(=O)[C@@H](NC(=O)[C@H](NC(=O)c3coc4cc(O)c(O)cc4c3=O)c3ccc(OCC(=O)O)cc3)[C@H]2SC1 [Example 4, Disodium 7β-[D-2-(4-carboxymethoxyphenyl)-2-(6,7-dihydroxy-4-oxo-4H-1-benzopyran-3-carboxamido)-acetamido]-3-(1-methyl-5-tetrazolyl)thiomethyl-3-cephem-4-carboxylate] | ≥ 200 mg/mL | 6.25 µg/mL | ≤ 0.05 µg/mL | ≤ 0.05 µg/mL | 0.2 µg/mL | 0.8 µg/mL | 0.8 µg/mL |  |  |
| O=C(O)COc1ccc([C@@H](NC(=O)c2coc3cc(O)c(O)cc3c2=O)C(=O)N[C@@H]2C(=O)N3C(C(=O)O)=C(CSc4nnnn4CC(=O)O)CS[C@H]23)cc1 [Example 8, Trisodium 7β-[D-2-(4-carboxymethoxyphenyl)-2-(6,7-dihydroxy-4-oxo-4H-1-benzopyran-3-carboxamido)-acetamido]-3-(1-carboxymethyl-5-tetrazolyl)thiomethyl-3-cephem-4-carboxylate] | ≥ 300 mg/mL | 50 µg/mL | 0.1 µg/mL | ≤ 0.05 µg/mL | 0.2 µg/mL | 1.56 µg/mL | 0.8 µg/mL | 20% |  |
| CCn1cc(C(=O)NC(C(=O)NC2C(=O)N3C(C(=O)O)=C(CSc4nnnn4C)CSC23)c2ccc(OCC(=O)O)cc2)c(=O)c2cc(OC(C)=O)c(OC(C)=O)cc21 (stereo not drawn) [Example 11] |  | 12.5 µg/mL (≈ 14.7 µM) | 0.1 µg/mL (≈ 0.118 µM) | ≤ 0.05 µg/mL | ≤ 0.05 µg/mL | 0.4 µg/mL (≈ 0.47 µM) | 0.2 µg/mL (≈ 0.235 µM) |  | ≥ 4000 mg/kg |
| Cc1oc2cc(O)c(O)cc2c(=O)c1C(=O)N[C@@H](C(=O)N[C@@H]1C(=O)N2C(C(=O)O)=C(CSc3nnnn3CC(=O)O)CS[C@H]12)c1ccc(OCC(=O)O)cc1 [Example 15, Trisodium 7β-[D-2-(4-carboxymethoxyphenyl)-2-(6,7-dihydroxy-2-methyl-4-oxo-4H-1-benzopyran-3-carboxamido)acetamido]-3-(1-carboxymethyl-5-tetrazolyl)thiomethyl-3-cephem-4-carboxylate] | ≥ 300 mg/mL | 100 µg/mL | 0.2 µg/mL | ≤ 0.05 µg/mL | 0.1 µg/mL | 3.13 µg/mL | 0.2 µg/mL | 32% | ≥ 4000 mg/kg |
| Cc1oc2c(O)c(O)ccc2c(=O)c1C(=O)N[C@@H](C(=O)N[C@@H]1C(=O)N2C(C(=O)O)=C(CSc3nnnn3CC(=O)O)CS[C@H]12)c1ccc(OCC(=O)O)cc1 [Example 27, Trisodium 7β-[D-2-(4-carboxymethoxyphenyl)-2-(7,8-dihydroxy-2-methyl-4-oxo-4H-1-benzopyran-3-carboxamido)acetamido]-3-(1-carboxymethyl-5-tetrazolyl)-thiomethyl-3-cephem-4-carboxylate] |  | 100 µg/mL | 0.8 µg/mL | ≤ 0.05 µg/mL | 0.8 µg/mL | 6.25 µg/mL | 0.4 µg/mL | 30% |  |
| Cc1oc2cc(O)c(O)cc2c(=O)c1C(=O)N[C@@H](C(=O)N[C@@H]1C(=O)N2C(C(=O)[O-])=C(C[n+]3ccccc3)CS[C@H]12)c1ccc(OCC(=O)O)cc1 [Example 40, Sodium 7β-[D-2-(4-carboxymethoxyphenyl)-2-(6,7-dihydroxy-2-methyl-4-oxo-4H-1-benzopyran-3-carboxamido)acetamido]-3-pyridiniummethyl-3-cephem-4-carboxylate] | ≥ 300 mg/mL | 100 µg/mL | 0.2 µg/mL | 0.1 µg/mL | 0.6 µg/mL | 12.5 µg/mL | 0.8 µg/mL | 39% |  |
| Cc1oc2cc(O)c(O)cc2c(=O)c1C(=O)N[C@@H](C(=O)N[C@@H]1C(=O)N2C(C(=O)[O-])=C(C[n+]3ccc(C(N)=O)cc3)CS[C@H]12)c1ccc(OCC(=O)O)cc1 [Example 41, Sodium 7β-[D-2-(4-carboxymethoxyphenyl)-2-(6,7-dihydroxy-2-methyl-4-oxo-4H-1-benzopyran-3-carboxamido)acetamido]-3-(4-carbamoylpyridinium)-methyl-3-cephem-4-carboxylate] | ≥ 300 mg/mL | 50 µg/mL | 0.2 µg/mL | ≤ 0.05 µg/mL | 0.4 µg/mL | 6.25 µg/mL | 0.4 µg/mL | 74% |  |
| Cc1oc2cc(O)c(O)cc2c(=O)c1C(=O)N[C@@H](C(=O)N[C@@H]1C(=O)N2C(C(=O)[O-])=C(C[n+]3ccc(CCS(=O)(=O)O)cc3)CS[C@H]12)c1ccc(OCC(=O)O)cc1 [Example 42, Disodium 7β-[D-2-(4-carboxymethoxyphenyl)-2-(6,7-dihydroxy-2-methyl-4-oxo-4H-1-benzopyran-3-carboxamido)acetamido]-3-[4-(2-sulfoethyl)-pyridinium]methyl-3-cephem-4-carboxylate] | ≥ 300 mg/mL | 100 µg/mL | 0.2 µg/mL | ≤ 0.05 µg/mL | 0.2 µg/mL | 3.13 µg/mL | 0.2 µg/mL | 46% | ≥ 4000 mg/kg |
| Cc1oc2cc(O)c(O)cc2c(=O)c1C(=O)N[C@@H](C(=O)N[C@@H]1C(=O)N2C(C(=O)[O-])=C(C[n+]3cccc(CC(=O)O)c3)CS[C@H]12)c1ccc(OCC(=O)O)cc1 [Example 43, Disodium 7β-[D-2-(4-carboxymethoxyphenyl)-2-(6,7-dihydroxy-2-methyl-4-oxo-4H-1-benzopyran-3-carboxamido)acetamido]-3-(3-carboxymethylpyridinium)-methyl-3-cephem-4-carboxylate] | ≥ 300 mg/mL | 100 µg/mL | 0.1 µg/mL | ≤ 0.05 µg/mL | 0.2 µg/mL | 12.5 µg/mL | 0.8 µg/mL | 25% | ≥ 4000 mg/kg |
| O=C(O)COc1ccc([C@@H](NC(=O)c2coc3cc(O)c(O)cc3c2=O)C(=O)N[C@@H]2C(=O)N3C(C(=O)[O-])=C(C[n+]4ccccc4)CS[C@H]23)cc1 [Example 44, Sodium 7β-[D-2-(4-carboxymethoxyphenyl)-2-(6,7-dihydroxy-4-oxo-4H-1-benzopyran-3-carboxamido)-acetamido]-3-pyridiniummethyl-3-cephem-4-carboxylate] | ≥ 300 mg/mL | 25 µg/mL | 0.1 µg/mL | ≤ 0.05 µg/mL | 0.8 µg/mL | 25 µg/mL | 0.8 µg/mL | 40% |  |
| NC(=O)c1cc[n+](CC2=C(C(=O)[O-])N3C(=O)[C@@H](NC(=O)[C@H](NC(=O)c4coc5cc(O)c(O)cc5c4=O)c4ccc(OCC(=O)O)cc4)[C@H]3SC2)cc1 [Example 45, Sodium 7β-[D-2-(4-carboxymethoxyphenyl)-2-(6,7-dihydroxy-4-oxo-4H-1-benzopyran-3-carboxamido)-acetamido]-3-(4-carbamoylpyridinium)methyl-3-cephem-4-carboxylate] | ≥ 300 mg/mL | 25 µg/mL | 0.1 µg/mL | ≤ 0.05 µg/mL | 0.8 µg/mL | 6.25 µg/mL | 0.8 µg/mL | 38% |  |
| O=C(O)COc1ccc([C@@H](NC(=O)c2coc3cc(O)c(O)cc3c2=O)C(=O)N[C@@H]2C(=O)N3C(C(=O)[O-])=C(C[n+]4ccc(CCS(=O)(=O)O)cc4)CS[C@H]23)cc1 [Example 46, Disodium 7β-[D-2-(4-carboxymethoxyphenyl)-2-(6,7-dihydroxy-4-oxo-4H-1-benzopyran-3-carboxamido)-acetamido]-3-[4-(2-sulfoethyl)pyridinium]methyl-3-cephem-4-carboxylate] | ≥ 300 mg/mL | 50 µg/mL | 0.4 µg/mL | ≤ 0.05 µg/mL | 0.8 µg/mL | 25 µg/mL | 0.4 µg/mL | 62% |  |
| Cc1oc2cc(O)c(O)cc2c(=O)c1C(=O)N[C@@H](C(=O)N[C@@H]1C(=O)N2C(C(=O)[O-])=C(C[n+]3ccc(C(=O)O)cc3)CS[C@H]12)c1ccc(OCC(=O)O)cc1 [Example 55, Disodium 7β-[D-2-(4-carboxymethoxyphenyl)-2-(6,7-dihydroxy-2-methyl-4-oxo-4H-1-benzopyran-3-carboxamido)acetamido]-3-(4-carboxypyridinium)-methyl-3-cephem-4-carboxylate] |  | 100 µg/mL | ≤ 0.05 µg/mL | ≤ 0.05 µg/mL | 0.4 µg/mL | 6.25 µg/mL | 0.4 µg/mL |  | ≥ 4000 mg/kg |
| Cc1oc2cc(O)c(O)cc2c(=O)c1C(=O)N[C@@H](C(=O)N[C@@H]1C(=O)N2C(C(=O)[O-])=C(C[n+]3ccc(C(N)=O)cc3)CS[C@H]12)c1ccc(OCC(=O)O)cc1 [Example 57, 7β-[D-2-(4-Carboxymethoxyphenyl)-2-(6,7-dihydroxy-2-methyl-4-oxo-4H-1-benzopyran-3-carboxamido)acetamido]-3-(4-carbamoylpyridinium)methyl-3-cephem-4-carboxylate] |  |  |  |  |  |  |  |  | ≥ 4000 mg/kg |
